Entries after “also recorded” stand apart in the source; their conditions may differ. Like-named read-outs stand apart in the source and are kept apart here.

For experiment [1], the system named is E. coli BW mutants (ΔacrA, respiration-defective). The format is cell-based, Escherichia coli. The conditions noted are these: ciprofloxacin 70% MIC. As to the method:
Aminoglycosides depend on PMF-energized uptake and thus respiratory complexes; ciprofloxacin is effluxed by AcrAB-TolC. […] Bliss interaction scores (ε) were calculated as in the screen and are represented by the mean and standard deviation across 3-8 replicates. d) Gentamicin and ciprofloxacin antagonism networks for E. coli BW. Nodes represent drugs colored according to targeted cellular process (as FIG. 1a). Full and dashed edges represent antagonistic drug-drug interactions for which intracellular antibiotic concentration was and was not measured, respectively. […] The bars for fluoroquinolones and aminoglycosides account for an extrapolation of antagonistic interactions to all other members of the two classes, assuming they behave the same as ciprofloxacin and gentamicin, respectively.
The kanamycin resistance cassettes was excised when necessary using the plasmid pCP20. The plasmid used for mdfA overexpression was obtained from the mobile E. coli ORF library.

Experiment [2] has as its system E. coli, S. typhimurium and P. aeruginosa. As to the kind of experiment: Screen across all three species / conservation of drug-drug interactions. Particulars: for General effect in combinations: conserved interaction network; for Antibacterial activity / growth inhibition of the drug on its own: single drug, in the screen. The format is cell-based. As to the method: Conservation of drug-drug interactions between strains of the same species was assessed by Pearson correlation of the interactions scores ε. For potentially non-conserved drug-drug interactions, the expected fitness distributions of the two strains were taken into account.
To assess the cross-species conservation of drug-drug interactions, the inventors took into account only drug pairs that were probed in all three species. […] Interactions were then compared across the three species. Cases in which an interaction between drugs changed sign across species (conflicting interactions; ˜7% of all interactions) were excluded from the comparative “across-species” Venn diagram (FIG. 3D). Note that with current analysis a given drug-drug interaction may be conserved across species, but not conserved within the species.
Conservation at the single drug level was defined based on shared resistance and sensitivity. A strain was considered sensitive to a given drug if one of the drug concentrations inhibited growth for at least 30%.

For experiment [3], the system named is MDR clinical isolates E. coli 124, 1027, 1334. As to the kind of experiment: 8×8 checkerboard assays against MDR clinical isolates. The format is cell-based, Escherichia coli. An excerpt:
(§1) For each of the three Gram-negative species profiled in this study, the inventors used two broadly used and sequenced strains: Escherichia coli K-12 BW25113 and O8 IAI1, Salmonella enterica serovar typhimurium LT2 and 14028s, Pseudomonas aeruginosa PAO1 and PA14. To validate selected synergies, the inventors profiled 6 MDR clinical Enterobacteriaceae isolates recovered from human patient specimens: E. coli 124, 1027, 1334 and Klebsiella pneumoniae 718, 929 and 980.

The test system of experiment [4] is MDR clinical isolates Klebsiella pneumoniae 718, 929 and 980. The experiment is described as above. The format is cell-based. Particulars: MDR K. pneumoniae isolates.
Excerpt: as §1

Experiment [5] has as its system E. coli BW and E. coli iAi1. As to the kind of experiment: Benchmarking 8×8 checkerboard assays (Bliss / Loewe additivity). It counts as cell-based, Escherichia coli. The conditions noted are these: 8×8 checkerboards.
Excerpt: For combinations between ß-lactams for which high-resolution 8×8 checkerboards with sufficient growth inhibition was available in the validation dataset, Loewe additivity was used to confirm the interactions. Drug-drug interactions were inferred by the shape of the isoboles (lines of equal growth) in two-dimensional drug concentration plots. […] To interpolate IC50 concentrations (or other ICn %), a logistic model was used to fit the growth for each concentration of the first drug across different concentrations of the second drug. The null-hypothesis of this model is represented by the additivity line: a linear isobole connecting equal individual IC's by the two drugs.
As in the screen, growth was assessed based on OD595 nm at early stationary phase for the no drug controls. The time-points used in the screen were used again here for screen strains, whereas 8 hours were used for all E. coli and K. pneumoniae MDR isolates. Fitness was calculated by dividing OD595 nm after single or double drug treatment by no drug treatment for each individual checkerboard. Bliss scores (ε) were calculated for all concentration ratios tested per drug combination, resulting in 49 ε values per drug pair. […] Antagonism was called when the median of the & distribution was above 0.1 or the Q3 was above 0.15. […]
Experiment [6] deals with E. coli (BW25113 wildtype and mutants). Put plainly: Minimal Inhibitory Concentration (MIC) calculation. The format is cell-based, Escherichia coli. The conditions noted are these: for Effect on MIC of chloramphenicol / Effect on MIC of ciprofloxacin: vanillin 150 μg/ml, aspirin 500 μg/ml, E. coli; for MIC: Escherichia coli. As to the method: MICs to all drugs were computed using a logistic fit of growth (OD595 nm for 8 h) over 2-fold serial dilutions of the antibiotic concentrations for all strains used for the high throughput screening and follow-up experiments.

The next experiment has as its system E. coli BW25113. As to the kind of experiment: Intracellular spectinomycin concentration with [3H]-spectinomycin. It counts as cell-based, Escherichia coli. The conditions noted are these: vanillin 150 μg/ml; mdfA-dependent. As to the method:
Intracellular spectinomycin was quantified by measuring [3H]-spectinomycin (1 μCi/mg; Hartmann Analytic Corp.). Overnight cultures of E. coli BW25113 were diluted 1:1,000 into 1 ml LB with and without vanillin (150 μg/ml) and grown to OD595 nm˜0.5. 50 μg/ml [3H]-spectinomycin:spectinomycin 1:100 was added and the cultures were incubated for 1 h. Cultures were pelleted, washed twice with PBS with 50 μg/ml non-labeled spectinomycin, re suspended in 1% SDS and incubated for 20 min at 85° C. The lysate was mixed with 8 ml liquid scintillation (Perkin Elmer ULTIMA Gold) and counted for 1 min using a Perkin Elmer Tri-Carb 2800TR. Measured radioactivity was normalized to cell number as measured by OD595 nm.

A further experiment deals with marA. As to the kind of experiment: Quantitative RT-PCR of marA expression. Particulars: vanillin 150 μg/ml. It counts as cell-based, Escherichia coli. As to the method: Overnight cultures of E. coli BW25113 and the marR deletion mutant were diluted 1:2,000 into 20 ml LB and grown at 37° C. to OD595 nm˜0.2. Aspirin or vanillin were added to the cultures to 500 and 150 μg/ml final concentration respectively (DMSO was added in the control), followed by a 30 min incubation period at 37° C. with agitation. Cells were harvested and RNA extraction was done with the RNeasy Protect Bacteria Mini Kit (Qiagen) according to manufacturer's directions. cDNA was prepared for qRT-PCR using SuperScript™ III Reverse Transcriptase (Thermo Fisher Scientific). marA and mdfA expression levels were estimated by quantitative RT-PCR using SYBR™ Green PCR master mix following the manufacturer's instructions (Thermo Fisher Scientific). Primer sequences for marA and recA are previously described. All experiments were conducted in at least three biological replicates, and relative expression levels were estimated according to Livak et al., using recA expression as reference.

In the next experiment the test system is AcrA. As to the kind of experiment: Immunoblot analysis for AcrA protein quantification. It counts as cell-based, Escherichia coli. The conditions noted are these: vanillin 150 μg/ml; marA-dependent. As to the method: Overnight cultures of E. coli BW25113 and the ΔmarA mutant were diluted 1:1,000 into 50 ml LB containing 500 μg/ml aspirin, 150 μg/ml vanillin or DMSO (drugs solvent control), followed by growth with agitation at 37° C. to OD595 nm˜0.5. Cells were washed in PBS containing corresponding drugs or DMSO, then resuspended to match OD595 nm=1. Cell pellets were resuspended in Laemmli buffer and heated to 95° C. for 3 minutes followed by immunoblot analysis with a-AcrA polyclonal antiserum (gift from K. M. Pos) at 1:200,000 dilution. Primary antiserum was detected using anti-rabbit HRP (A0545 Sigma) at 1:5,000 dilution. Pixel densities of bands were quantified using ImageJ. At least five different biological replicates were blotted and summarized by their mean and standard deviation.
Background: In western blotting, separated proteins are transferred to a membrane and probed.

The test system of the next experiment is E. coli MG1655. As to the kind of experiment: Intracellular gentamicin concentration with [3H]-gentamicin. The format is cell-based, Escherichia coli. The conditions noted are these: gentamicin 5 μg/ml plus second drug.

Procedure for E. coli MG1655: Intracellular gentamicin was quantified by measuring [3H]-gentamicin (1 mCi/ml; Hartmann Analytic Corp.), as previously described. Overnight cultures of E. coli MG1655 (ther parental stain of BW25113) were diluted 1:1,000 into 5 ml LB and grown to OD595 nm˜0.1. [3H]-gentamicin was diluted in cold gentamicin to get a 5 mg/ml (0.1 mCi/ml) stock solution, which was then added to the culture at a final concentration of 5 μg/ml (0.1 μCi/ml), simultaneously with the second drug: Berberine (200 μg/ml), Erythromycin (15 μg/ml), Metformin (13000 μg/ml), Procaine (6000 μg/ml), Loperamide (400 μg/ml), Benzalkonium (5 μg/ml). […] Cultures were then incubated at 37° C. on a rotary shaker. At 0, 0.5, 1, 1.5 and 2 h time-points, 500 μl aliquots were removed and applied to a 0.45 μm-pore-size HAWP membrane filter (Millipore) pretreated with 1 ml of unlabeled gentamicin (250 μg/ml). Filters were washed with 10 ml of 1.5% NaCl, placed into counting vials, and dried for 30 min at 52° C. 8 ml of liquid scintillation were then added to the dried filters and vials were incubated overnight at room temperature before being counted for 5 min. Gentamicin uptake efficiency is expressed as total accumulation of gentamicin (ng) per 108 cells, and plotted here for the final timepoint (2 h) for simplicity.

As to `C[n+]1ccc(-c2cc[n+](C)cc2)cc1` [paraquat], the “Antagonism with ciprofloxacin in mutant” value in [1] is given as “resolved”.

For `CN(C)C(=O)C(CCN1CCC(O)(c2ccc(Cl)cc2)CC1)(c1ccccc1)c1ccccc1` [Loperamide, loperamide], in experiment [2], the “General effect in combinations” value was “general potentiating effect”. The “Effect on activity of colistin” value in experiment [3] (MDR E. coli isolates) and in experiment [4] was “potentiated” in each case. Moreover, the “Effect on activity of doxycycline” value in experiment [3] (MDR E. coli isolates) and in experiment [4] was “potentiated” each time.

Turning to `CCN1CCN(C(=O)N[C@@H](C(=O)N[C@@H]2C(=O)N3[C@@H]2SC(C)(C)[C@@H]3C(=O)O)c2ccccc2)C(=O)C1=O` [Piperacillin, piperacillin], in experiment [5], the “Growth inhibition reached by single drug” value was “did not reach 50% growth inhibition”.

In the case of `COc1cc(/C=C/C(=O)CC(=O)/C=C/c2ccc(O)c(OC)c2)ccc1O` [curcumin], the “Antagonism with ciprofloxacin in mutant” value in experiment [1] was “remain largely intact”.

For the compound `COc1cc(C=O)ccc1O` [vanillin], the “Antibacterial activity / growth inhibition of the drug on its own” value in [2] was “no antibacterial activity”. Besides, the “Effect on activity of spectinomycin” value in experiment [3] (E. coli MDR isolates) is on record as “potentiated”. In addition, in experiment [6], the “Effect on MIC of chloramphenicol” value is reported as “increase” and the “Effect on MIC of ciprofloxacin” value is “increase”. Moreover, the “Effect on intracellular spectinomycin concentration” value with E. coli BW25113 is reported as “increased; also recorded: accumulation”. For the same compound, the marA expression entry in the experiment on marA is reported as “overexpression”. Besides, the AcrA protein levels result with AcrA is “increases”.

On to `Cn1c(=O)c2c(ncn2C)n(C)c1=O` [caffeine], for which the “Antagonism with ciprofloxacin in mutant” value in [1] was “resolved”.

On to `COc1ccc(CCN(C)CCCC(C#N)(c2ccc(OC)c(OC)c2)C(C)C)cc1OC` (stereo not shown) [verapamil], for which the “General effect in combinations” value in experiment [2] is on record as “general potentiating effect”.

As for `CC(=O)Oc1ccccc1C(=O)O` [aspirin, acetylsalicylic acid], in experiment [6], the “Effect on MIC of chloramphenicol” value is “increase” and the “Effect on MIC of ciprofloxacin” value is given as “increase”.

Take `CN[C@@H]1[C@H](O)[C@H](NC)[C@H]2O[C@@]3(O)C(=O)C[C@@H](C)O[C@H]3O[C@@H]2[C@H]1O` [spectinomycin]: the “Spectinomycin MIC change upon addition of vanillin” value in experiment [6] (100 μg/ml vanillin, wildtype E. coli BW and knockouts of AcrAB-TolC members or MarA) was “decreases”. The MIC was about 15 µg/mL in experiment [6] (BW25113, read-out: MIC of spectinomycin, E. coli, with vanillin (65 μg/ml)) and over 30 µg/mL in experiment [6] (BW25113, read-out: MIC of spectinomycin, largely resistant E. coli, without vanillin). Moreover, the “Spectinomycin MIC change” value in experiment [6] (deletion of mdfA) is on record as “increased”. Besides, in experiment [6] (overexpression of mdfA (pmdfA) vs E. coli BW, MIC does not change), the “Spectinomycin sensitivity (dose response)” value was “increased spectinomycin sensitivity”. In experiment [6] (with 500 μg/ml aspirin), the “Increase of spectinomycin MIC” value is recorded as about 3 fold. In [6] (with vanillin, mild overexpression of mdfA (pmdfA), comparing to MIC of combination in wildtype), the “Decrease of spectinomycin MIC” value was about 2 fold.

As for benzalkonium, in the experiment with E. coli MG1655, the “Effect on intracellular gentamicin concentration” value is “decreases”. Further, the “Antagonism with ciprofloxacin in mutant” value in [1] is on record as “remain largely intact”.

`CCN(CC)CCOC(=O)c1ccc(N)cc1` [procaine]: in experiment [2], the “General effect in combinations” value is “general potentiating effect” and the “Antibacterial activity / growth inhibition of the drug on its own” value is listed as “did not inhibit bacterial growth on its own”. For the same compound, in experiment [3] (MDR E. coli isolates), the “Effect on activity of doxycycline” value is reported as “resensitized” and the “Effect on activity of fusidic acid” value was “resensitized”. Further, in experiment [4], the “Effect on activity of doxycycline” value is “resensitized” and the “Effect on activity of fusidic acid” value is reported as “resensitized”.

The values above are taken from US12668830B2, “Pharmaceutical compositions for prevention and/or treatment of infections and antibacterial-induced dysfunctions” (priority 2018, dated 2026).
